Data reported in patent publication US20230054595A1, “NOVEL DRUGGABLE TARGETS FOR THE TREATMENT OF INFLAMMATORY DISEASES SUCH AS SYSTEMIC LUPUS ERYTHEMATOSUS (SLE) AND METHODS FOR DIAGNOSIS AND TREATMENT USING THE SAME” (THE CHILDREN'S HOSPITAL OF PHILADELPHIA, priority 2019, published 2023).

Tested on: TFH cells
Assay: IL-21 secretion by in vitro differentiated TFH cells cultured with pharmacologic inhibitors (ELISA)
Assay type: cell-based, human
Settings: 5 days with inhibitor (A64 150-2500 nM; PF06260933 3.7-100 nM), restimulated with anti-CD3+anti-CD28, ELISA
Method: Human primary CD4+ T cells were cultured under TFH condition for 5 days in the presence of the indicated concentrations of each inhibitor (150 nM to 2500 nM for A64, 3.7 nM to 100 nM for PF06260933). In addition, anti-CD3- and anti-CD28-stimulated human CD4+ T cells (non-TFH) were cultured in the presence of inhibitors. After 5 days of primary culture, cells were harvested and 10^6 cells were restimulated with plate-bound human anti-CD3+ anti-CD28 (1 ug/ml each) in the presence of inhibitors. Culture supernatants were collected at the indicated timepoints for measurement of IL-2 and IL-21 by ELISA (eBioscience).

Nc1ccc(-c2cnc(N)c(-c3ccc(Cl)cc3)c2)cn1 [PF06260933]
IL-21 production by TFH cells: dose-dependent reduction | IL-21 production by TFH cells (listed as MINK inhibitory drug): dose-dependent inhibition
